Reference: patent US20180036314A1, “METHODS AND COMPOSITIONS FOR TREATING PERIPHERAL VASCULAR DISEASE” (Exodos Life Sciences Limited Partnership, priority 2009, published 2018)

Tests used:
pig skin = assay: Local cutaneous blood flow in pigs after topical application (laser Doppler); assay type: in vivo; conditions: for Local cutaneous blood flow, FLOW (MV), 10 min. after treatment / Local cutaneous blood flow, FLOW (MV), 20 min. after treatment / Local cutaneous blood flow, FLOW (MV), 30 min. after treatment / Local cutaneous blood flow, FLOW (MV), 60 min. after treatment / Local cutaneous blood flow, FLOW (MV), 120 min after treatment / Local cutaneous blood flow, FLOW (MV), 180 min. after treatment: topical
Procedure: A stable depth of sedation was maintained with continuous intravenous methohexital, titrated to a minimal lid reflex and a regular respiratory rate. Throughout the experiment, the animals spontaneously breathed through a “snout-cone” connected to a standard anesthesia machine delivering 100% oxygen. The dorsal surface of the animal was cleaned with tepid water. Ten sites (2×2 cm each) were defined on the dorsal surface of the animal with permanent marker. […] MAP was recorded at the start and end of each Doppler scan. A dose volume of 0.1 mL of vehicle, control, or test article was applied to each site. L-arginine monohydrate and sildenafil citrate were prepared in commercially available Veecogel Cream base formulation (available from PCCA, 9901 South […], Houston, Tex., USA) containing […], Coconut oil, Capryloic Acid, […], Squalane, Boric Acid, Polysorbate 80, Sorbitan Monooleate 80, Simethicone, Butylated hydroxytoluene. Sildenafil citrate 1% was dissolved in propylene glycol 2% and combine with base with constant mixing. L-arginine monohydrate 10% and 1% were dissolved in 2% propylene glycol and combined with the Veecogel described above. No two adjacent sites were administered the same concentration of any control or test article and administration was temporally spaced to allow at least 2 minutes between dosing each site. […] Applications were made in the same order and over the same time span as the baseline blood flow measurements. […] Blood flow at the untreated, control site was measured immediately prior to and immediately after the measurements at the treated sites. These two measurements were averaged to obtain the control blood flow for each interval. Serum levels of local drugs were not measured. Regional differences in blood flow were accounted for by normalizing the measurements of flow made after injection of a test solution to the baseline flow at the site prior to application. Changes in blood flow are expressed as a percent change from control blood flow. Variations in skin blood flow over the course of the experiment were accounted for by normalizing the changes in blood flow at a given site to the changes in blood flow at a control site. Thus, the change in cutaneous blood flow at a treatment site can be determined by the formula: [formula] where Sx is the blood flow at an injected site X min after application, So is the baseline flow at that site prior to application, Cx is the flow at the control site X min after the application, and Co is the blood flow at the control site at the same time that the baseline flow measurements were made.

[1] = tested on: hands of normal human volunteers; assay: Skin temperature recovery of the hand after cold water immersion (infrared camera); assay type: in vivo; conditions: topical, acclimation at 25° C.
Procedure: The effects of L-arginine and sidelnafil citrate in the regulation of human blood flow was determined by measuring the rate of skin temperature recovery in the hands of normal human volunteers following a period of cold water immersion. The measurements were performed at room temperature 25° C., for a period of 30 minutes after acclimatization. L-arginine monohydrate and sildenafile citrate were prepared in commercially available Veecogel Cream base formulation containing Krisgel 100™, Coconut oil, Capryloic Acid, Triglicerides, Squalane, Boric Acid, Polysorbate 80, Sorbitan Monooleate 80, Simethicone, Butylated hydroxytoluene. Sildenafil citrate 1% was dissolved in propylene glycol 2% and combine with base with constant mixing. L-arginine monohydrate 10% and 1% were dissolve in 2% propylene glycol and combine with the Veecogel described above.
Skin temperature was measured with an infrared camera FLIR T300 (FLIR Systems, Inc., Boston, Mass., USA). Changes in skin temperature were determined after cooling of hand for 2 minutes in ice water by analyzing individual thermal images with FLIR Quick Report software. The effects of test drugs were determined following application of substance to the cooled hand. Thermal images of a patient receiving the control treatment and of a patient receiving the combination treatment were taken at 0, 5, and 15 minutes after treatment, and are shown in FIGS. 1A and 1B, respectively.

[2] = tested on: primary Raynaud's symptoms; conditions: in vivo; cited from earlier work
[3] = tested on: patients with Raynaud's phenomenon secondary to scleroderma; conditions: in vivo; cited from earlier work
[4] = tested on: patients with Raynaud's phenomenon; conditions: cited from earlier work
[5] = tested on: patient suffering from Raynaud's phenomenon secondary to chemotherapy; conditions: single patient; equipotent doses; cited from earlier work
[6] = tested on: patients with secondary Raynaud's phenomenon; conditions: oral 50 mg twice daily for 4 weeks, cited from earlier work
[7] = in vivo; cited from earlier work
[8] = tested on: patients with scleroderma and lupus; conditions: in vivo; cited from earlier work
[9] = tested on: vasospastic attacks and peripheral blood flow; conditions: oral 20 mg 2 or 3 times per week during 4 weeks; compared to pentoxifylline 600 mg b.i.d.; cited from earlier work

N=C(N)NCCC[C@H](N)C(=O)O [Arginine, L-arginine]
Effect on dermal blood flow (pig skin; topical application): increased dermal blood flow in a dose and time dependent manner | Local cutaneous blood flow, FLOW (MV), 10 min. after treatment (pig skin; dose 1%): 0.41 MV | Local cutaneous blood flow, FLOW (MV), 20 min. after treatment (pig skin; dose 1%): 12.47 MV | Local cutaneous blood flow, FLOW (MV), 30 min. after treatment (pig skin; dose 1%): 5.55 MV | Local cutaneous blood flow, FLOW (MV), 60 min. after treatment (pig skin; dose 1%): 2.71 MV | Local cutaneous blood flow, FLOW (MV), 120 min after treatment (pig skin; dose 1%): 7.91 MV | Local cutaneous blood flow, FLOW (MV), 180 min. after treatment (pig skin; dose 1%): 10.26 MV | Local cutaneous blood flow, FLOW (MV), 10 min. after treatment (pig skin; dose 10%): 19.82 MV | Local cutaneous blood flow, FLOW (MV), 20 min. after treatment (pig skin; dose 10%): 21.88 MV | Local cutaneous blood flow, FLOW (MV), 30 min. after treatment (pig skin; dose 10%): 22.07 MV | Local cutaneous blood flow, FLOW (MV), 60 min. after treatment (pig skin; dose 10%): 38.45 MV | Local cutaneous blood flow, FLOW (MV), 120 min after treatment (pig skin; dose 10%): 40.21 MV | Local cutaneous blood flow, FLOW (MV), 180 min. after treatment (pig skin; dose 10%): 38.72 MV | Change in skin temperature from baseline, 1 min. ([1]; dose 10% W/v): 2.5 °C | Change in skin temperature from baseline, 2 min. ([1]; dose 10% W/v): 4 °C | Change in skin temperature from baseline, 5 min. ([1]; dose 10% W/v): 5 °C | Change in skin temperature from baseline, 10 min. ([1]; dose 10% W/v): 9.5 °C | Change in skin temperature from baseline, 15 min. ([1]; dose 10% W/v): 11.5 °C

CCCc1nn(C)c2c(=O)[nH]c(-c3cc(S(=O)(=O)N4CCN(C)CC4)ccc3OCC)nc12 [Sildenafil, 5-[2-ethoxy-5-(4-methyl-1-piperazinylsulphonyl)phenyl]-1-methyl-3-n-propyl-1,6-dihydro-7H-pyrazolo[4,3-d]pyrimidin-7-one]
Primary Raynaud's symptoms [2]: failed to improve primary Raynaud's symptoms | Patients with a reduction in pain and frequency of Raynaud's phenomenon attacks [3]: 80% | Patients with digital ulcer healing (of those with digital ulcers at baseline) [3]: 75% | Effect on blood flow (pig skin; topical concentration of 1% in Veecogel cream base): increased blood flow in the areas of application | Local cutaneous blood flow, FLOW (MV), 10 min. after treatment (pig skin; dose 1%): −10.31 MV | Local cutaneous blood flow, FLOW (MV), 20 min. after treatment (pig skin; dose 1%): −3.51 MV | Local cutaneous blood flow, FLOW (MV), 30 min. after treatment (pig skin; dose 1%): −1.57 MV | Local cutaneous blood flow, FLOW (MV), 60 min. after treatment (pig skin; dose 1%): 1.58 MV | Local cutaneous blood flow, FLOW (MV), 120 min after treatment (pig skin; dose 1%): 3.15 MV | Local cutaneous blood flow, FLOW (MV), 180 min. after treatment (pig skin; dose 1%): 15.73 MV | Increase in forearm blood flow ([4]; oral, after treatment): 75% | Change in skin temperature from baseline, 1 min. ([1]; dose 1% W/v): 1 °C | Change in skin temperature from baseline, 2 min. ([1]; dose 1% W/v): 4 °C | Change in skin temperature from baseline, 5 min. ([1]; dose 1% W/v): 6.5 °C | Change in skin temperature from baseline, 10 min. ([1]; dose 1% W/v): 8.5 °C | Change in skin temperature from baseline, 15 min. ([1]; dose 1% W/v): 12.5 °C | Response of Raynaud's symptoms and capillary blood flow [5]: did not respond | Digital ulcers in patients who had digital ulcers at baseline [6]: ulcer healing was observed | Increase in mean capillary flow velocity [6]: more than 4 fold | Frequency and duration of Raynaud's attacks ([6]; compared to placebo): reduction in the frequency and duration of Raynaud's attacks compared to placebo | Half-life [7]: 3.8 h

CN1CC(=O)N2[C@H](c3ccc4c(c3)OCO4)c3[nH]c4ccccc4c3C[C@@H]2C1=O [tadalafil, (6R,12aR)-2,3,6,7,12,12a-hexahydro-2-methyl-6-(3,4-methylenedioxyphenyl)-pyrazino[2′,1′:6,1]pyrido[3,4-b]indole-1,4-dione]
Raynaud's symptoms [8]: reduced Raynaud's symptoms | Response of Raynaud's symptoms and capillary blood flow [5]: improved Raynaud's symptoms and increased capillary blood flow | Peripheral blood flow at the end of the treatment period [9]: increased peripheral blood flow | Vasospastic attack frequency and duration [9]: significant reduction in vasospastic attack frequency and duration

Cc1c(C)c2c(c(C)c1O)CC[C@@](C)(CCC[C@H](C)CCC[C@H](C)CCCC(C)C)O2 [α-tocopherol]
Effects on blood flow parameters ([4]; comparator arm): no effects on blood flow parameters
